Results: PubChem BioAssay (NCI)
Values joined by “and” are separate entries in the source; they are usually repeats but may differ in a detail not shown here. Equal entries are not always repeated.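 Test compounds were applied to cells in 96-well plates for 48 hours at 5 doses. Abbreviation: GI50, concentration required for 50% inhibition of growth. At the TGI there is no net growth.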 Where a SMILES comes first, the peptide text is derived from it. [ ]: non-standard residue; d: D form. The star is where a group is joined. X13 = OC[C@H](CC1CCCCC1)N*; dIva = CC[C@@](C)(N)C(=O)O; Aib = CC(C)(N)C(=O)O

System: MDA-MB-468 breast
Assay: NCI tumour cell line growth inhibition, 48 h

Row | Structure (SMILES) | GI50 | TGI
1 | CCOC(=O)N1CCc2cc(OC)c(OC)c3c2c1cc1cc(OC)c(OC)cc13 | 3.17 µM | > 100 µM
2 | C/C(=N/Nc1nc2ccccc2n1C)c1ccccn1 | 0.0319 µM | 0.239 µM
3 | CC1=C2C[C@H]3[C@@H](CC[C@@H]4CC(NS(C)(=O)=O)CC[C@@]43C)[C@@H]2CC[C@@]2(C1)O[C@@H]1C[C@H](C)CN[C@H]1[C@H]2C (stereo not given in full) | 2 µM | 5.62 µM
4 | C/C(=N\Nc1cc(C)c2cc(C)ccc2n1)c1ccccn1 | 0.0654 µM | 0.318 µM
5 | COC1CC2CCC(C)C(O)(O2)C(=O)C(=O)N2CCCCC2C(=O)OC(C(C)CC2CCC(O)C(OC)C2)CC(=O)C(C)C=C(C)C(O)C(OC)C(=O)C(C)CC(C)/C=C/C=C/C=C1C (stereo not given) | < 0.005 µM | 7.35 µM
6 | CCc1c(C#N)c(S[C@@H](C(N)=O)c2ccccc2)nc(N(C)C)c1C#N | 6.14 µM | > 100 µM
7 | C=CC(=O)N1CCN(c2nc(=O)n(-c3c(C)ccnc3C(C)C)c3nc(-c4c(O)cccc4F)c(F)cc23)[C@@H](C)C1 | 22 µM | > 81.1 µM
8 | CCn1c(CN2CCN(Cc3ccccc3)CC2)nc2cc(NC(=O)c3cccs3)ccc21 | 6.16 µM | 47.1 µM
9 | CC[C@@](C)(NC(=O)C(C)(C)NC(=O)[C@@H](NC(=O)[C@@H]1CCCN1C(=O)C(C)(C)NC(=O)[C@H](CC(C)C)NC(=O)CNC(=O)C(C)(C)NC(=O)[C@@H](NC(=O)C(C)(C)NC(=O)[C@H](CCC(N)=O)NC(=O)[C@H](C)NC(=O)C(C)(C)NC(=O)[C@H](C)NC(=O)C(C)(C)NC(=O)[C@H](C)NC(=O)C(C)(C)NC(C)=O)C(C)C)C(C)C)C(=O)N[C@@H](CCC(N)=O)C(=O)N[C@@H](CCC(N)=O)C(=O)N[C@H](CO)CC1CCCCC1 (Ac-[Aib]A[Aib]A[Aib]AQ[Aib]V[Aib]GL[Aib]PV[Aib][dIva]QQ-X13) | 0.747 µM | 4.08 µM
10 | COc1ncc(-c2ccc3nccc(-c4ccnnc4)c3c2)cc1NS(=O)(=O)c1ccc(F)cc1F | 0.0027 µM and < 0.01 µM | 0.0266 µM and 0.0158 µM
11 | CC(C)[C@H](CO)Nc1nc(Nc2ccc(C(=O)NCCNS(=O)(=O)c3cccc4c(N(C)C)cccc34)c(Cl)c2)c2ncn(C(C)C)c2n1 | 1.69 µM | 6.75 µM
12 | COc1cc(-c2nn(-c3cccc(NC(=O)Nc4cc(C(F)(F)F)cc(C(F)(F)F)c4)c3)cc2-c2ccncc2)ccc1Cl | 0.236 µM | 2.31 µM
13 | COc1cc(C)c(Cl)cc1C1=NN(c2ccc(S(N)(=O)=O)cc2)C(/C=C/c2ccccc2)C1 (stereo not given) | 2.14 µM | 5.79 µM
14 | CC[C@H](Nc1nc(NCc2cnc(C)cc2C)c2ncn(C(C)C)c2n1)[C@@H](C)O | 0.192 µM | 0.47 µM
15 | C=C1C(=O)O[C@H]2[C@H]1CC/C(Cn1cc(-c3cc(C(F)(F)F)cc(C(F)(F)F)c3)nn1)=C\CC[C@@]1(C)O[C@@H]21 | 0.424 µM | 1.75 µM
16 | O=C(CNc1ccc2c(c1)C(=O)c1ccccc1C2=O)Nc1ccc2c(c1)C(=O)c1ccccc1C2=O | 0.896 µM | 2.48 µM
17 | Cc1c(-c2c(-c3ccc(F)o3)sc3ncnc(O[C@H](Cc4ccccc4OCc4ccnn4CC(F)(F)F)C(=O)O)c23)ccc(OCCN2CCN(C)CC2)c1Cl | 0.0253 µM | 0.105 µM
18 | Nc1c(Br)cc(Br)c2c1[nH]c(=O)c1ccccc12 | 0.55 µM | 8.9 µM
19 | Cc1ccccc1N=Nc1ccc(NC(=O)c2ccnn2C)c(C)c1 | 3.84 µM | 70.6 µM
20 | Ic1ccccc1-c1ccccc1 | 85 µM | > 100 µM
21 | CCCc1cc2c(=O)c(C(=O)OC)c[nH]c2cc1N(CC)CC | 24.4 µM | > 100 µM
22 | O=C(/C=C/c1cccnc1)NCCCCC1CCCN(C(=O)c2ccccc2)C1 (stereo not given) | 13.6 µM | > 100 µM
23 | C=C(C)[C@@H]1CC[C@]2(COC)CC[C@]3(C)[C@H](CC[C@@H]4[C@@]5(C)CCCNC(C)(C)[C@@H]5CC[C@]43C)[C@@H]12 | 1.57 µM | 3.18 µM

Row | Structure (SMILES) | GI50 | TGI
24 | O=C1c2cc3c(cc2-c2c1c1ccc(Cl)cc1c(=O)n2CCCNCCO)OCO3 | 0.085 µM | 2.35 µM
25 | CC(C)(C)c1nn(-c2ccccc2)c2c1C(=O)CSC(c1ccccc1Cl)N2 (stereo not given) | 1.01 µM | 12.1 µM
26 | O=[N+]([O-])c1ccc(-c2nnc(SCc3ccc(O)c4ncccc34)o2)cc1 | 0.396 µM | > 100 µM
27 | COc1cc(NC2=C(Cl)C(=O)c3nc(C)ccc3C2=O)cc(OC)c1 | 1.23 µM | 2.57 µM
28 | Cc1cc2nc3c4cc(N)ccc4n(CCN(C)C)c3nc2cc1C | 1.04 µM | 2.79 µM
29 | Cn1c(/C=C(\C#N)c2ccccc2)nc2c(N3CCOCC3)nc(Cl)nc21 | 0.688 µM | 2.19 µM
30 | CCOc1ccc(-c2nonc2NC(=O)c2cccc(C)c2)cc1OCC | 17.6 µM | 48.8 µM
31 | COC(=O)C1=C(C(=O)ON)C2C=CC1(C(Cc1ccccc1)Nc1ccccc1)O2 (stereo not given) | 1.42 µM | 2.8 µM
32 | COc1ccc(-c2nnc(SCc3ccc(O)c4ncccc34)n2-c2ccccc2)cc1 | 0.81 µM | 6.57 µM
33 | COc1ccc(/C=C\c2cc(OC)c(OC)c(OC)c2)cc1OC(=O)c1cccc(Cn2cc(CCOC(=O)[C@H](N)Cc3cn(C)c4ccccc34)nn2)c1 | < 0.01 µM | 3.57 µM
34 | C#CCC(Cc1cnc2nc(N)nc(N)c2n1)c1ccc(C(=O)N[C@@H](CCC(=O)O)C(=O)O)cc1 (stereo not given in full) | < 0.01 µM | > 20.4 µM
35 | COc1ccccc1CCN=C1NC(=O)/C(=C/c2ccc3ncccc3c2)S1 | 4.59 µM | 16.4 µM
36 | CC(C)(O)CS(=O)(=O)Nc1ccc2c(c1)CCN(C(=O)COc1cccnc1)C2 | > 100 µM | > 100 µM
37 | O=c1c2ccccc2n(C[C@H]2CO2)c2ccccc12 | 1.83 µM | 3.81 µM
38 | O=C1/C(=C/c2ccccc2)CN(C(=O)c2cccnc2)C/C1=C\c1ccccc1 | 1.82 µM | 4.24 µM
39 | CCC/C(=N/N=C(N)N)c1ccc(NC(=O)c2cc3cc(OC)ccc3[nH]2)cc1 | 2.34 µM | 12.1 µM
40 | COC(=O)c1c2c(c(C)[n+]([O-])c1C)C(=O)C=C(NCc1ccc(F)c(Cl)c1)C2=O | 0.2 µM | 0.712 µM
41 | O=C1NC(O)C(c2c[nH]c3ccccc23)=C1c1c[nH]c2ccccc12 (stereo not given) | > 25 µM | > 25 µM
42 | CC1(C)N=C(N)N=C(N)N1c1ccc(OCCCCOc2ccc(S(=O)(=O)F)cc2)c(Cl)c1 | 0.188 µM | 8.8 µM
43 | NC(N)=N/N=C\c1cccc(OCc2ccccc2)c1 | 1.34 µM | 2.73 µM
44 | O=C1C(=O)c2ccccc2C(O)=C1CC=C(Br)Br | 11.4 µM | 41.8 µM
45 | Fc1ccc2c(c1)c(-c1nc(-c3c[nH]c4ncccc34)cs1)cn2CCCN1CCCCC1 | 1.61 µM | 3.23 µM
